Results on two molecules are retold here after patent publication US20250017979A1, “METHODS AND COMPOSITIONS FOR IMPROVING IN VIVO SURVIVAL OF MIDBRAIN DOPAMINE NEURONS” (MEMORIAL SLOAN-KETTERING CANCER CENTER, priority 2022, published 2025).

In experiment [1] the test system is NURR1::H2B-GFP sorted neurons. Kind of experiment: TNFα / adalimumab treatment of day 25 NURR1::H2B-GFP sorted dopamine neurons in vitro (immunofluorescence, western blot, qRT-PCR). To be noted: co-treatment with TNFα and adalimumab (10 μg/ml), 24 hours. It counts as cell-based, human. For orientation: In western blotting, separated proteins are transferred to a membrane and probed.
Method: hESC differentiation toward DA neurons. Midbrain dopaminergic neuron differentiation was performed using H9 hESCs, which include Nurr1::GFP. hESCs were grown on VTN-N (Thermo Fisher Scientific)-coated 6-well plates in E8-essential medium. Cells were maintained at 37° C., 5% CO2. hESCs were differentiated with an optimized protocol from a previously reported study (Kim et al., 2021, Cell Stem Cell February 4; 28 (2): 343-355.c5; Riessland et al., 2019, Cell Stem Cell. October 3; 25 (4): 514-530.c8). At day 25 of differentiation from hPSCs iCas9/NURR1::GFP hPSC lines containing sgRNA-pool libraries and sgRNA for dTomato and p53 hPSCs, GFP and dTomato expressed dopamine neurons were sorted using flow cytometry associated cell sorting (FACS). […] TNF-α neutralizing antibody was employed either to co-injection (1 mg/ml) or in vitro cultured dopamine neuron (10 μg/ml).

The subject of experiment [2] is CD marker sorted dopamine neurons. Kind of experiment: 1-month survival of CD49e-low/CD184-high sorted dopamine neuron grafts in striatum of NSG mice, co-injection, stereology. It counts as in vivo. As for the experimental part:
hESC differentiation toward DA neurons. Midbrain dopaminergic neuron differentiation was performed using H9 hESCs, which include Nurr1::GFP. hESCs were grown on VTN-N (Thermo Fisher Scientific)-coated 6-well plates in E8-essential medium. Cells were maintained at 37° C., 5% CO2. hESCs were differentiated with an optimized protocol from a previously reported study (Kim et al., 2021, Cell Stem Cell February 4; 28 (2): 343-355.c5; Riessland et al., 2019, Cell Stem Cell. October 3; 25 (4): 514-530.c8). At day 25 of differentiation from hPSCs iCas9/NURR1::GFP hPSC lines containing sgRNA-pool libraries and sgRNA for dTomato and p53 hPSCs, GFP and dTomato expressed dopamine neurons were sorted using flow cytometry associated cell sorting (FACS). The sorted hPSCs were either injected into mice or cultured for subsequent experiments until use. Furthermore, double sorting approach with CD49e-low and CD184-high was applied to enrich post-mitotic dopamine neuron at day 25 differentiation derived from hPSC using FACS, and sorted cells were used for transplantation and in vitro culture. TNF-α neutralizing antibody was employed either to co-injection (1 mg/ml) or in vitro cultured dopamine neuron (10 μg/ml).
Intracranial transplantation. hESCs-derived DA neurons that were sorted based on either NURR1::H2B-GFP or CD49e low and CD184 high were resuspended in 100,000+ cells/μL in neurobasal medium with 200 mM L-glutamine and 100 mM ascorbic acid (AA) transplantation medium (without human albumin or kedbumin 25%). […]
Stereological analysis. For short-term survival studies, unbiased stercological counts of NURR1::H2B-GFP DA neurons within the striatum (AP+0.5, ML+/−1.8, DV −3.4 to −3.3 from dura) were performed using stereological principles and analyzed with StereoInvestigator software (Microbrightfield, Williston, VT, USA), as previously described. […] For each tissue section analyzed, section thickness was assessed in each sampling site and guard zones of 1 μm were used at the top and bottom of each section. […]

In experiment [3] the test system is amphetamine-induced rotation behaviors. Description: D-amphetamine induced rotation assay in unilateral 6-OHDA lesioned PD mouse model after grafting. It counts as in vivo, NSG mice. How it is done: (§1) 6-OHDA mouse model. Briefly, adult female and male NSG mice (6-12 weeks) were anesthetized with 1%-2% isoflurane mixed in oxygen. 1 μL 6-OHDA (3 mg/ml, in saline with 1% ascorbic acid) was directly injected into the right side of substantial nigra (anterior-posterior [AP]=−2.9 mm, lateral [ML]=1.1 mm, vertical [DV]=4.5 mm, from dura) with rate of 0.5-1 μL per minute to generate unilateral toxin Parkinsonian mouse model. Animals with amphetamine-induced rotation at >6 rotations per min were selected for cell transplantation 4 weeks after 6-OHDA-lesion surgery. Animals were randomly grouped and transplanted with CD sorted neurons vs. CD sorted neurons+adalimumab vs. PBS (sham surgery control).
d-amphetamine induced rotation behavior assays. Amphetamine-induced rotation tests were performed twice before transplantation, and 1, 2, 3, 4, 5, 6 months after transplantation. The mice were injected intraperitoneally with a d-amphetamine in saline (Sigma, 10 mg/kg). After 10 minutes, the rotation

Experiment [4] relates to CD marker sorted dopamine neurons. Kind of experiment: Histology and stereology of dopamine neuron grafts at 6 months in 6-OHDA mice. Format: in vivo, NSG mice. How it is done: as §1
Immunohistochemistry. Histology on tissues from mice was performed on frozen sections from xenografts. Mice were anesthetized with pentobarbital and transcardically perfused using heparinized (10 U/mL) PBS (pH 7.4), followed by 4% paraformaldehyde in PBS. The liquid is administered using peristaltic pump to control the rate of the solution delivery to the system. Tissues were post-fixed in ice cold 4% paraformaldehyde for 18 hours sharp and transferred to 30% sucrose until the tissue sink (typically 3-6 days post-), followed by snap freezing in O.C.T (Fisher Scientific, Pittsburgh, PA) or Neg-50 (Thermo Scientific). Brain tissues are all sectioned in 30 μm thick coronal sections using a cryostat and mounted onto a Superfrost plus microscope slides (Fisher Scientific). All the slides are stored at −80° C. for long-term until use. To process for immunolabeling, tissues are washed twice with 1×PBS, followed by permeabilization in 0.5% Triton X-100 in PBS for 10 minutes. Living cells in culture were directly fixed in 4% paraformaldehyde for 18 min, followed by 10 min permeabilization in 0.5% Triton X-100 in PBS. For labeling, cells or tissue sections were immunostained with primary antibodies of interest in 2% BSA in 0.25% Triton X-100 in PBS at 4° C. overnight. Next day appropriate Alexa Fluor secondary antibodies are conjugated at room temperature for 1 hr at a dilution of 1:1,000. Nuclei were counterstained by DAPI.
Stereological analysis. For short-term survival studies, unbiased stercological counts of NURR1::H2B-GFP DA neurons within the striatum (AP+0.5, ML+/−1.8, DV −3.4 to −3.3 from dura) were performed using stereological principles and analyzed with StereoInvestigator software (Microbrightfield, Williston, VT, USA), as previously described. […] For each tissue section analyzed, section thickness was assessed in each sampling site and guard zones of 1 μm were used at the top and bottom of each section. […] For analysis, at least 2-8 sections were evaluated for analysis. […]

For a further experiment, the system named is rodent GSK3β homologs. To be noted: cited from earlier work.
The mark [5] stands for this setting: 6 months old graft, TH+ population.
Setting [6] is: 6 months post transplantation, vs PBS co-injection.

For adalimumab, the “TNFα-induced inductions of p53 and p53 downstream genes (p21, PUMA)” value in experiment [1] was “abolished”. The “Stereological counts of NURR1::GFP+ cells” value in experiment [2] (1 month post grafting, mean and S.E.M, n=5, p=0.01 vs PBS) is recorded as 12,423 (mean)+1,859 (S.E.M) per 100,000 cells injected. Further, the “volume of the graft” value in experiment [2] (1 month post grafting, per 100,000 cells, mean, n=5, p=0.0085) is 0.1175 mm^3. The “survival of CD marker sorted dopamine neurons in vivo post-transplantation” value in experiment [2] (co-injection (1 mg/ml), vs PBS) is on record as “significantly improved”. The “functional recovery of amphetamine-induced rotation” value in experiment [3] (6 months post grafting, CD sorted neurons with or without adalimumab) is reported as “Robust functional recovery”. Further, the “time course and completeness of functional rescue vs CD sorted neurons alone” value in experiment [3] (adalimumab co-injected mDA neurons, 1-6 months) was “trend towards an earlier and more complete functional rescue”. Moreover, in experiment [4] (setting [5]), the “fraction of CALB1 expressing A10 dopamine neuron subtype” value is on record as “without affecting” and the “proportion of ALDH1A1+ A9 mDA neuron subtype” value is reported as “significant increase”. Besides, in experiment [4] (setting [6]), the overall graft size result is “significantly increased” and the “total numbers of surviving dopamine neurons (TH)” value was “significantly increased”.
Regarding `Cc1c[nH]c(-c2cnc(NCCNc3ccc(C#N)cn3)nc2-c2ccc(Cl)cc2Cl)n1` [CHIR99021, 6-(2-(4-(2,4-dichlorophenyl)-5-(4-methyl-1H-imidazol-2-yl)pyrimidin-2-ylamino)ethylamino) nicotinonitrile], the “IC50 values against rodent GSK3β homologs” value with rodent GSK3β homologs is “nanomolar”.
